Common to all, as to type: functional, Mus musculus
Assay [1] has as its system EMT6. As to the kind of experiment: Compound was evaluated for its effect on survival of hypoxic EMT6 tumor cells when exposed to concentration at 10E-4 M.
For assay [2], the system named is EMT6. In words: Compound was evaluated for its effect on survival of aerobic EMT6 tumor cells when exposed to concentration at 10E-4 M.
Assay [3] has as its system EMT6. As to the kind of experiment: Compound was evaluated for its effect on survival of aerobic EMT6 tumor cells when exposed to concentration at 10E-5 M.
The test system of assay [4] is EMT6. In words: Compound was evaluated for its effect on survival of aerobic EMT6 tumor cells when exposed to concentration at 10e-6 M.
Assay [5] concerns EMT6. In words: Compound was evaluated for its effect on survival of hypoxic EMT6 tumor cells when exposed to concentration at 10e-5 M.
The subject of assay [6] is EMT6. As to the kind of experiment: Compound was evaluated for its effect on survival of hypoxic EMT6 tumor cells when exposed to concentration at 10E-6 M.
The subject of assay [7] is EMT6. In words: Compound was evaluated for its effect on survival of aerobic EMT6 tumor cells when exposed to concentration at 10E-6 M.
In assay [8] the test system is EMT6. As to the kind of experiment: Compound was evaluated for its effect on survival of aerobic EMT6 tumor cells when exposed to concentration at 10e-8 M.
Assay [9] deals with EMT6. As to the kind of experiment: Compound was evaluated for its effect on survival of hypoxic EMT6 tumor cells when exposed to concentration at 10E-8 M.
Assay [10] concerns EMT6. As to the kind of experiment: Compound was evaluated for its effect on survival of aerobic EMT6 tumor cells when exposed to concentration at 10e-7 M.
The test system of assay [11] is EMT6. In words: Compound was evaluated for its effect on survival of hypoxic EMT6 tumor cells when exposed to concentration at 10e-7 M.

As for `Nc1nc(SCc2cccc([N+](=O)[O-])c2)c2[nH]cnc2n1`, the Surviving factor is reported as 88% in assay [1]; 91% in [2]; 103% in assay [3]; 95% in [4]; 103% in assay [5]; 103% in [6].

As for `Nc1nc(SCc2ccccc2[N+](=O)[O-])c2[nH]cnc2n1`, the Surviving factor in [7] is listed as 95%; in [1] it was 85%; in assay [2], 89%; in assay [8], 91%; in assay [9] it was 94%; in assay [6] it was 82%.

As to `Nc1nc2[nH]cnc2c(=S)[nH]1` [THIOGUANINE], the Surviving factor was 106% in assay [1]; 67% in [2]; 78% in [3]; 95% in assay [10]; 70% in [4]; 89% in [11]. Also, the Surviving factor in assay [5] is listed as 107%; in assay [6], 90%.

Turning to `Nc1nc(SCc2ccc([N+](=O)[O-])cc2)c2nc[nH]c2n1`, the Surviving factor came to 106% in [7]; 156% in assay [1]; 78% in assay [2]; 79% in assay [8]; 102% in assay [9]; 137% in assay [6].
